According to patent publication US20240018121A1, “NOVEL HETEROAROMATIC COMPOUNDS EXHIBITING ANTIFUNGAL ACTIVITY AND THEIR METHOD OF USE” (FOX CHASE CHEMCIAL DIVERSITY CENTER, INC., priority 2020, published 2024):
Values after ≈ are worked out from the molar mass of the structure shown. Structures can show the parent of a compound that is named as a salt. Where two headings read alike, the source gives them in different places.

Assays:
Type in all cases: cell-based
[1] = tested on: Mucor ramosissimus 057718 (ATCC 90286); experiment: Fungal MIC Protocol, Mucor ramosissimus (MIC-50); settings: for MIC50: Mucor ramosissimus, read-out: MIC-50 Mucorales ramosissimus 90286
Outline: (§1)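 MIC-type endpoint: >50% growth inhibition, judged by eye with an inverted mirror. Spores in RPMI/MOPS (pH 7.0, ~2×10^4 cfu/mL) were incubated 48 hours at 35° C with duplicate serial compound dilutions.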

[2] = tested on: Aspergillus fumigatus T33439 (ATCC MYA-3626); experiment: Fungal MIC Protocol, Aspergillus fumigatus; settings: for MIC: Aspergillus fumigatus, read-out: MIC Aspergillus fumigatus 3626
Outline: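 This broth microdilution MIC test used RPMI/MOPS medium at pH 7.0 with glucose. Compounds were diluted from DMSO stock to 200 ug/mL and serially diluted ten times in 96-well round bottom plates. Equal volumes of compound and Aspergillus spore suspension at OD530 0.002 were combined, with controls of compound without cells and spores without compound. Plates were bagged and incubated at 35° C. for 48 hours.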

[3] = tested on: Fusarium solani (ATCC 58877); experiment: Fungal MIC Protocol, Fusarium solani; settings: for MIC: Fusarium solani, read-out: MIC Fusarium solani 58877
Outline: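 Broth microdilution MIC test against Fusarium solani in RPMI/MOPS medium at pH 7.0. Compounds from DMSO stock were diluted to 200 ug/mL, then serially diluted ten times and plated in duplicate at 50 μl per well. 50 ul of spore suspension at OD530 0.005 was added. Controls had compound without cells and spores without compound. Plates were mixed gently, bagged, and incubated at 35° C. for 48 hours.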

[4] = tested on: Aspergillus flavus AFL1 (ATCC MYA-3631); experiment: Fungal MIC Protocol, Aspergillus flavus; settings: for MIC: Aspergillus flavus, read-out: MIC Aspergillus flavus 3631
Outline: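 The MIC against Aspergillus flavus was measured by broth microdilution in RPMI/MOPS medium at pH 7.0. Compounds were diluted to 200 ug/mL from DMSO stocks, then ten serial dilutions were tested in duplicate in round bottom 96-well plates. Spores adjusted to a final OD530 of 0.002 were added, with no-cell and no-compound control wells, and plates were incubated 48 hours at 35° C.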

[5] = tested on: Fusarium falciforme FS1 (ATCC MYA-3636); experiment: Fungal MIC Protocol, Fusarium falciforme; settings: for MIC: Fusarium falciforme, read-out: MIC Fusarium falciforme 3636
Outline: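 MIC against Fusarium falciforme was determined by broth microdilution in RPMI/MOPS medium containing glucose. Compounds started at 200 ug/mL and were serially diluted ten times, then combined with harvested spores adjusted to an OD530 of 0.005. Controls held compound without cells and spores without compound. Plates were bagged and incubated at 35° C. for 48 hours.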

[6] = tested on: Mucor circinelloides 1463(62) (ATCC 26759); experiment: Fungal MIC Protocol, Mucor circinelloides (MIC-50); settings: for MIC50: Mucor circinelloides, read-out: MIC-50 Mucorales circinelloides 26579
Outline: as §1

Candida albicans GDH2346 = experiment: Candida Minimal Inhibitory Concentration (MIC); settings: for MIC50: Candida albicans, read-out: MIC-50 Candida albicans GDH2346
Outline: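 Twofold serial dilutions from 200 μg/mL in RPMI 1640/MOPS with glucose, pH 7.0, tested in duplicate against yeast from an OD600 1.0 suspension diluted 1:1000. Incubated at 35° C; OD600 read at 24 and 48 h.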

[7] = ATCC90286, 50% growth inhibition at 48 hours
[8] = 100% growth inhibition at 48 hours
[9] = ATCC58877, 100% growth inhibition at 48 hours
[10] = ATCC26759, 50% growth inhibition at 48 hours
[11] = GDH2346, 50% growth inhibition at 48 hours
[12] = 50% growth inhibition at 48 hours

Compound	MIC50 [1, 7]	MIC [2, 8]	MIC [3, 9]	MIC [4, 8]	MIC [5, 8]	MIC50 [6, 10]	MIC50 (Candida albicans GDH2346; [11])	further results
Cc1cc(C2=CCN(C(=N)N)CC2)ccc1-n1nnc(-c2ccc(C3=CCN(C(=N)N)CC3)cc2)c1C [Example 32, 4-(4-(1-(4-(1-Carbamimidoyl-1,2,3,6-tetrahydropyridin-4-yl)-2-methylphenyl)-5-methyl-1H-1,2,3-triazol-4-yl)phenyl)-5,6-dihydropyridine-1(2H)-carboximidamide]	6.25 µg/mL (≈ 12.6 µM)	0.78 µg/mL (≈ 1.57 µM)	0.78 µg/mL (≈ 1.57 µM)	0.39 µg/mL (≈ 0.787 µM)	< 0.1 µg/mL	0.78 µg/mL (≈ 1.57 µM)	0.08 µg/mL (≈ 0.161 µM)	
CCOCCOCCn1c(-c2ccc(C3=CCN(C(=N)N)CC3)cc2F)nnc1-c1ccc(C2=CCN(C(=N)N)CC2)cc1F [Example 9, 4,4′-(4,4′-(4-(2-(2-Ethoxyethoxy)ethyl)-4H-1,2,4-triazole-3,5-diyl)bis(3-fluoro-4,1-phenylene))bis(5,6-dihydropyridine-1(2H)-carboximidamide)]	3.13 µg/mL (≈ 5.05 µM)	0.2 µg/mL (≈ 0.323 µM)	0.2 µg/mL (≈ 0.323 µM)	0.39 µg/mL (≈ 0.629 µM)	0.2 µg/mL (≈ 0.323 µM)	3.13 µg/mL (≈ 5.05 µM)	< 0.1 µg/mL	
Cn1c(-c2ccc(C3=CCN(C(=N)N)CC3)cc2)nnc1-c1ccc(C2=CCN(C(=N)N)CC2)cc1 [Example 1, 4,4-(4,4-(4-Methyl-4H-1,2,4-triazole-3,5-diyl)bis(4,1-phenylene))bis(5,6-dihydropyridine-1(2H)-carboximidamide)]	0.78 µg/mL (≈ 1.62 µM)	< 0.05 µg/mL	0.78 µg/mL (≈ 1.62 µM)	0.1 µg/mL (≈ 0.208 µM)	< 0.05 µg/mL	0.2 µg/mL (≈ 0.415 µM)	< 0.2 µg/mL	
Cc1cc(C2=CCN(C(=N)N)CC2)ccc1-c1nnc(-c2ccc(C3=CCN(C(=N)N)CC3)cc2)o1 [Example 43, 4-(4-(5-(4-(1-Carbamimidoyl-1,2,3,6-tetrahydropyridin-4-yl)-2-methylphenyl)-1,3,4-oxadiazol-2-yl)phenyl)-5,6-dihydropyridine-1(2H)-carboximidamide]	25 µg/mL (≈ 51.8 µM)	0.78 µg/mL (≈ 1.62 µM)	0.78 µg/mL (≈ 1.62 µM)	0.31 µg/mL (≈ 0.642 µM)	0.2 µg/mL (≈ 0.414 µM)	12.5 µg/mL (≈ 25.9 µM)	0.39 µg/mL (≈ 0.808 µM)	
Cc1cc(C2=CCN(C(=N)N)CC2)ccc1-c1cn(-c2ccc(C3=CCN(C(=N)N)CC3)cc2)nn1 [Example 36, 4-(4-(4-(4-(1-Carbamimidoyl-1,2,3,6-tetrahydropyridin-4-yl)-2-methylphenyl)-1H-1,2,3-triazol-1-yl)phenyl)-5,6-dihydropyridine-1(2H)-carboximidamide]	3.13 µg/mL (≈ 6.5 µM)	0.2 µg/mL (≈ 0.415 µM)	0.2 µg/mL (≈ 0.415 µM)	0.2 µg/mL (≈ 0.415 µM)	0.1 µg/mL (≈ 0.208 µM)	0.78 µg/mL (≈ 1.62 µM)	0.39 µg/mL (≈ 0.81 µM)	
N=C(N)N1CC=C(c2ccc(-c3cn(-c4ccc(C5=CCN(C(=N)N)CC5)cc4)nn3)cc2)CC1 [Example 30, 4(4-{1-[4-(1-Carbamimidoyl-1,2,3,6-tetrahydropyridin-4-yl)phenyl]-1H-1,2,3-triazol-4-yl}phenyl)-1,2,3,6-tetrahydropyridine-1-carboximidamide]	0.78 µg/mL (≈ 1.67 µM)	0.01 µg/mL (≈ 0.0214 µM)	< 0.05 µg/mL	0.06 µg/mL (≈ 0.128 µM)	0.01 µg/mL (≈ 0.0214 µM)	0.1 µg/mL (≈ 0.214 µM)	0.63 µg/mL (≈ 1.35 µM)	
4,4-(4,4-(4-Cyclohexyl-4H-1,2,4-triazole-3,5-diyl)bis(4,1-phenylene))bis (5,6-dihydropyridine-1(2H)-carboximidamide) [Example 56]								MIC-50 Mucorales ramosissimus 90286 [1, 12]: 1.56 µg/mL; MIC Aspergillus fumigatus 3626 [2, 8]: 0.39 µg·mL; MIC Fusarium solani 58877 [3, 8]: <0.1 µg·mL; MIC Aspergillus flavus 3631 [4, 8]: 0.39 µg·mL; MIC Fusarium falciforme 3636 [5, 8]: <0.1 µg·mL; MIC-50 Mucorales circinelloides 26579 [6, 12]: 0.39 µg/mL; MIC-50 Candida albicans GDH2346 (Candida albicans GDH2346; [12]): 0.78 µg/mL
Cn1c(-c2cc(F)c(C3=CCN(C(=N)N)CC3)c(F)c2)nnc1-c1ccc(C2=CCN(C(=N)N)CC2)cc1F [Example 85, 4-(4-{5-[4-(1-carbamimidoyl-1,2,3,6-tetrahydropyridin-4-yl)-2-fluorophenyl]-4-methyl-4H-1,2,4-triazol-3-yl}-2,6-difluorophenyl)-1,2,3,6-tetrahydropyridine-1-carboximidamide trifluoroacetate]								MIC50 ([1]; ATCC90286, 48 h): 0.78 µg/mL; MIC ([2]; 48 h): 0.024 µg/mL; MIC ([3]; ATCC58877, 48 h): < 0.012 µg/mL; MIC ([4]; 48 h): 0.024 µg/mL; MIC ([5]; 48 h): < 0.012 µg/mL; MIC50 ([6]; ATCC26759, 48 h): 0.2 µg/mL; MIC50 (Candida albicans GDH2346; GDH2346, 48 h): 0.1 µg/mL
Cl.N=C(N)N1CC=C(c2ccc(-c3nnc(-c4ccc(C5=CCN(C(=N)N)CC5)cc4)n3CCO)cc2)CC1 [Example 70, 4-(4-{5-[4-(1-carbamimidoyl-1,2,3,6-tetrahydropyridin-4-yl)phenyl]-4-(2-hydroxyethyl)-4H-1,2,4-triazol-3-yl}phenyl)-1,2,3,6-tetrahydropyridine-1-carboximidamide hydrochloride]	12.5 µg/mL	0.1 µg/mL	0.05 µg/mL	0.1 µg/mL	0.05 µg/mL	1.56 µg/mL	0.3 µg/mL	
N=C(N)N1CC=C(c2ccc(-c3nnc(-c4ccc(C5=CCN(C(=N)N)CC5)cc4F)n3C3CCN(C(=N)N)CC3)c(F)c2)CC1 [Example 12, 4,4′-(4,4′-(4-(1-Carbamimidoylpiperidin-4-yl)-4H-1,2,4-triazole-3,5-diyl)bis (3-fluoro-4,1-phenylene))bis(5,6-dihydropyridine-1(2H)-carboximidamide)]	> 100 µg/mL	3.13 µg/mL (≈ 4.98 µM)	< 0.1 µg/mL	3.13 µg/mL (≈ 4.98 µM)	0.39 µg/mL (≈ 0.62 µM)	> 100 µg/mL	12.5 µg/mL (≈ 19.9 µM)	
N=C(N)N1CC=C(c2ccc(-c3nnc(-c4ccc(C5=CCN(C(=N)N)CC5)c(F)c4)o3)cc2F)CC1 [Example 49, 4,4′-(4,4′-(1,3,4-oxadiazole-2,5-diyl)bis(2-fluoro-4,1-phenylene)) bis(5,6-dihydropyridine-1(2H)-carboximidamide)]	25 µg/mL (≈ 49.5 µM)	3.13 µg/mL (≈ 6.2 µM)	3.13 µg/mL (≈ 6.2 µM)	0.78 µg/mL (≈ 1.55 µM)	< 0.1 µg/mL	1.56 µg/mL (≈ 3.09 µM)	1.56 µg/mL (≈ 3.09 µM)	
N=C(N)N1CC=C(c2ccc(-c3nnc(-c4ccc(C5=CCN(C(=N)N)CC5)cc4F)o3)c(F)c2)CC1 [Example 48]	6.25 µg/mL (≈ 12.4 µM)	0.78 µg/mL (≈ 1.55 µM)	3.13 µg/mL (≈ 6.2 µM)	0.78 µg/mL (≈ 1.55 µM)	< 0.1 µg/mL	0.78 µg/mL (≈ 1.55 µM)	1.56 µg/mL (≈ 3.09 µM)	
N=C(N)NCCn1c(-c2ccc(C3=CCN(C(=N)N)CC3)cc2F)nnc1-c1ccc(C2=CCN(C(=N)N)CC2)cc1F [Example 16, 4,4′-(4,4′-(4-(2-guanidinoethyl)-4H-1,2,4-triazole-3,5-diyl)bis(3-fluoro-4,1-phenylene))bis(5,6-dihydropyridine-1(2H)-carboximidamide)]	> 100 µg/mL	0.39 µg/mL (≈ 0.663 µM)	< 0.1 µg/mL	0.39 µg/mL (≈ 0.663 µM)	< 0.1 µg/mL	12.5 µg/mL (≈ 21.2 µM)	0.39 µg/mL (≈ 0.663 µM)	
